Bases are written 5' to 3'; sugars and linkages follow in the same order, as letters with counts (s phosphorothioate, o phosphodiester; PS: all linkages phosphorothioate). The collection does not say whether C is 5-methylated. l = locked nucleic acid (LNA); d = 2'-deoxy (DNA)

In the series the target is Tau. The experiment in a line: rat primary cortical neurons, FLIPR, 25 uM ASO.
On to “ATTTCCAAATTCACTTTTAC (sugars llldldddddddddllddll, PS)”, for which the calcium oscillation score is 131 % of control.
For “ATTTCCAAATTCACTTTTAC (sugars lllldddddddddlddldll, PS)” the value was 110 % of control; for “ATTTCCAAATTCACTTTTAC (sugars lllldddddddddldlddll, PS)”, 137 % of control.
On to “ATTTCTCTAATTGTCCA (sugars l4 d10 l3, PS)”, for which the calcium oscillation score was 46.8 % of control.
For “ATTTGGAAAGATGAAATTTG (sugars l3 d14 l3, PS)” the value was 0 % of control.
ATTTTACTACTCTCTTT (sugars l4 d9 l4, PS): the calcium oscillation score was 82 % of control.
“ATTTTACTACTCTCTTTT (sugars l4 d10 l4, PS)”: the calcium oscillation score is 75 % of control.
Consider “ATTTTACTACTCTCTTTTC (sugars l4 d11 l4, PS)”, for which the calcium oscillation score was 70.6 % of control.
With “ATTTTACTACTCTCTTTTCT (sugars l3 d14 l3, PS)”, the calcium oscillation score was 68 % of control.
“ATTTTTACCAATTTGCC (sugars l2 d11 l4, PS)”: the calcium oscillation score was 57 % of control.
In the case of “CAAAACATTCTCACCAAACC (sugars l4 d14 l2, PS)”, the calcium oscillation score was 84.8 % of control.
For “CAAAATCCTTAATTTAACCA (sugars l4 d12 l4, PS)”, the calcium oscillation score was 60.6 % of control.
Consider “CAAACAATCCATTTATATT (sugars l4 d11 l4, PS)”, for which the calcium oscillation score is 69.3 % of control.
Next, “CAAACAATCCATTTATATTC (sugars l4 d12 l4, PS)”: 55.5 % of control; CAAACAGGATACAGT (sugars l3 d9 l3, PS): 49.6 % of control; “CAAACCAACTCAACATTACC (sugars l4 d14 l2, PS)”: 94.7 % of control.
As for “CAAACCACTCTTATTCTTT (sugars l3 d12 l4, PS)”, the calcium oscillation score was 83.2 % of control.
For “CAAACCACTCTTATTCTTTA (sugars l4 d13 l3, PS)” the value was 68.5 % of control.
For the sequence CAAACCAGTTACCATCA (sugars l4 d9 l4, PS), the calcium oscillation score was 87.7 % of control.
For the sequence CAAACTTTTACTCTGAC (sugars l4 d9 l4, PS), the calcium oscillation score was 63.8 % of control.
For “CAAATCAATTCTCATTTCAA (sugars l4 d12 l4, PS)” the value was 65.7 % of control; for “CAACAAACATCTAAACACCT (sugars l4 d13 l3, PS)”, 78.9 % of control; for “CAACAATCCAACCACTAA (sugars l4 d10 l4, PS)”, 74.1 % of control.
As for “CAACAATCCAACCACTAAA (sugars l4 d11 l4, PS)”, the calcium oscillation score is 89.8 % of control.
For CAACAGATATTCATTCC (sugars l4 d9 l4, PS), the calcium oscillation score is 60.6 % of control.
With CAACATTTGCACTCTC (sugars l4 d8 l4, PS), the calcium oscillation score is 67.7 % of control.
For “CAACATTTGCACTCTCT (sugars l2 d11 l4, PS)” the value was 53 % of control.
For “CAACTCAAACACTAACTT (sugars l4 d10 l4, PS)” the value was 64.5 % of control; for “CAACTCAACATTACCCTTA (sugars l4 d13 l2, PS)”, 81.1 % of control.
As to “CAACTCAACATTACCCTTAA (sugars l3 d14 l3, PS)”, the calcium oscillation score is 68 % of control.
For “CAACTCTTAGCATCCACT (sugars l2 d14 l2, PS)”, the calcium oscillation score is 51.6 % of control.
Next, “CAACTCTTTGAACACCC (sugars l4 d11 l2, PS)”: 76.8 % of control; “CAACTCTTTGAACACCCC (sugars l2 d14 l2, PS)”: 91.6 % of control; “CAACTGATTCCATCACC (sugars l4 d11 l2, PS)”: 87.8 % of control.
Turning to CAACTGGTTTGTAGAC (sugars l3 d10 l3, PS), the calcium oscillation score was 42.9 % of control.
Next, “CAACTGGTTTGTAGACTATT (sugars l3 d14 l3, PS)”: 6.64 % of control.
Take “CAACTTTCATCTACTTTTCA (sugars l3 d14 l3, PS)”: the calcium oscillation score is 94.4 % of control.
For CAAGAGGCACAAGT (sugars l3 d8 l3, PS), the calcium oscillation score was 36.2 % of control.
Consider CAAGAGGCACAAGTC (sugars l3 d9 l3, PS), for which the calcium oscillation score was 112 % of control.
Next, “CAAGAGTCACTGCACTGCAT (sugars l3 d14 l3, PS)”: 50 % of control.
For “CAATCCATTTATATTCTTTT (sugars l4 d12 l4, PS)” the value was 63.2 % of control; for CAATCCTAAACAATGC (sugars l4 d8 l4, PS), 45.4 % of control.
For “CAATCCTAAACAATGCC (sugars l2 d11 l4, PS)” the value was 41.8 % of control.
With CAATTAACCGAACTGC (sugars l3 d10 l3, PS), the calcium oscillation score is 89.7 % of control.
Take “CAATTCTCAGCACACCA (sugars l4 d11 l2, PS)”: the calcium oscillation score is 22.5 % of control.
As for “CAATTCTCATTTCAACCTTC (sugars l2 d14 l4, PS)”, the calcium oscillation score was 54.1 % of control.
In the case of “CAATTTGGAAAGATGAAATT (sugars l3 d14 l3, PS)”, the calcium oscillation score is 3.89 % of control.
As for “CACAAACCAACTCAACATTA (sugars l4 d13 l3, PS)”, the calcium oscillation score is 82.7 % of control.
In the case of CACAACCCAAGATTCC (sugars l3 d10 l3, PS), the calcium oscillation score was 58.8 % of control.
As to CACAAGTCCTTACAAA (sugars l3 d10 l3, PS), the calcium oscillation score is 194 % of control.
As for “CACATGCACCCAACTCTA (sugars l2 d13 l3, PS)”, the calcium oscillation score was 60.2 % of control.
For the sequence “CACATGCTCACACACCAC (sugars l2 d13 l3, PS)”, the calcium oscillation score was 97.5 % of control.
Regarding “CACATTTGCAAACCACA (sugars l3 d10 l4, PS)”, the calcium oscillation score is 67.4 % of control.
With “CACCACAGTCTTTTAAT (sugars l4 d10 l3, PS)”, the calcium oscillation score is 73.7 % of control.
“CACCACTTTAATCTGCCT (sugars l2 d14 l2, PS)”: the calcium oscillation score is 41.1 % of control.
Next, “CACCATCCAAGTCAATGCCT (sugars l3 d14 l3, PS)”: 24.2 % of control; “CACCCAAACTCCAAGTTC (sugars l4 d12 l2, PS)”: 53.9 % of control; “CACCCACTTTCCTAATTC (sugars l3 d13 l2, PS)”: 65.6 % of control.
Consider “CACCCACTTTCCTAATTCC (sugars l1 d16 l2, PS)”, for which the calcium oscillation score was 60.9 % of control.
With “CACCCACTTTCCTAATTCCC (sugars l1 d17 l2, PS)”, the calcium oscillation score is 55.1 % of control.
Turning to “CACCCATCAATTTGGAAAGA (sugars l3 d14 l3, PS)”, the calcium oscillation score is 91.5 % of control.
On to CACCCTAAACCATGAT (sugars l3 d10 l3, PS), for which the calcium oscillation score is 71.4 % of control.
On to CACCCTTACACATAGC (sugars l3 d11 l2, PS), for which the calcium oscillation score was 60.6 % of control.
In the case of “CACCCTTACACATAGCT (sugars l3 d12 l2, PS)”, the calcium oscillation score is 55.6 % of control.
Next, “CACCTCATTAAGATCAC (sugars l3 d10 l4, PS)”: 76.6 % of control.
As for “CACCTCCTATATTCTCAG (sugars l2 d12 l4, PS)”, the calcium oscillation score was 75.4 % of control.
For the sequence CACCTCCTGGTTTATG (sugars l3 d10 l3, PS), the calcium oscillation score was 65.3 % of control.
Turning to “CACCTCCTGGTTTATGATGG (sugars l3 d14 l3, PS)”, the calcium oscillation score is 0 % of control.
For the sequence CACCTTACCACTTTCA (sugars l3 d10 l3, PS), the calcium oscillation score is 115 % of control.
Consider “CACCTTCAGCCCAACTT (sugars l4 d11 l2, PS)”, for which the calcium oscillation score is 41.6 % of control.
On to CACCTTGCTCAGGTCA (sugars l3 d10 l3, PS), for which the calcium oscillation score was 134 % of control.
For CACCTTTTCATGTTAAA (sugars l4 d9 l4, PS) the value was 97.5 % of control; for “CACCTTTTTCCATCTTACTA (sugars l2 d16 l2, PS)”, 67.5 % of control.
Turning to “CACTCAAGAAATGGTTTGCT (sugars l3 d14 l3, PS)”, the calcium oscillation score is 9.52 % of control.
Consider CACTCTAACATCTTAG (sugars l4 d8 l4, PS), for which the calcium oscillation score is 77.6 % of control.
Next, CACTCTCTGCATATAT (sugars l4 d9 l3, PS): 69 % of control.
In the case of “CACTCTCTGCATATATA (sugars l4 d10 l3, PS)”, the calcium oscillation score was 48 % of control.
As for CACTCTGATACTATTAT (sugars l4 d9 l4, PS), the calcium oscillation score was 69 % of control.
For the sequence “CACTGGCGACTTGTACACGA (sugars l3 d14 l3, PS)”, the calcium oscillation score was 5.18 % of control.
For CACTGTTACACATTTA (sugars l4 d8 l4, PS) the value was 70.6 % of control; for CACTGTTACACATTTAT (sugars l4 d9 l4, PS), 68 % of control.
Regarding “CACTTTACACATTAAATTTA (sugars l4 d12 l4, PS)”, the calcium oscillation score is 60.9 % of control.
As for “CACTTTCCTAATTCCCAA (sugars l2 d13 l3, PS)”, the calcium oscillation score was 72.7 % of control.
Next, “CACTTTCCTAATTCCCAAA (sugars l3 d14 l2, PS)”: 68 % of control.
Consider “CACTTTCCTAATTCCCAAAT (sugars l2 d16 l2, PS)”, for which the calcium oscillation score was 62.1 % of control.
For CAGAACTAAATTTACC (sugars l4 d8 l4, PS), the calcium oscillation score is 51.1 % of control.
In the case of CAGAATATTACACCAT (sugars l4 d8 l4, PS), the calcium oscillation score is 102 % of control.
For “CAGACACCACTGGCGACTTG (sugars l3 d14 l3, PS)” the value was 46.5 % of control; for “CAGACCATCAATTTCCC (sugars l2 d13 l2, PS)”, 75.7 % of control.
Take “CAGACCATCAATTTCCCT (sugars l2 d14 l2, PS)”: the calcium oscillation score is 72.5 % of control.
For the sequence “CAGAGCTGGGTGGTGTCTTT (sugars l3 d14 l3, PS)”, the calcium oscillation score is 0 % of control.
Next, CAGAGGAACGTGTGGA (sugars l3 d10 l3, PS): 29.6 % of control; “CAGATATTCATTCCCTC (sugars l2 d12 l3, PS)”: 64.4 % of control; “CAGATTCCCCAACTCACA (sugars l2 d14 l2, PS)”: 71.5 % of control.
For CAGATTTAATTCTCACT (sugars l4 d9 l4, PS) the value was 77.7 % of control.

The record behind these values is the OligoGym collection.
